How the values were obtained:
[1] = target: Voltage-dependent N-type calcium channel subunit alpha-1B (Homo sapiens) (UniProt Q00975); experiment: Inhibition of Calcium Channel N-Type at 10 µM in the Eurofins-Panlabs radioligand binding assay (Eurofins_assay_216000); settings: Rattus norvegicus; Compound concentration 10.0 uM
Rattus norvegicus [2] = organism: Rattus norvegicus; experiment: Inhibition of Imidazoline I2, Central at 10 µM in the Eurofins-Panlabs radioligand binding assay (Eurofins_assay_241000); set-up: ligand concentration 2 nM; settings: Compound concentration 10.0 uM
Mus musculus = organism: Mus musculus; experiment: Inhibition of Phorbol Ester at 10 µM in the Eurofins-Panlabs radioligand binding assay (Eurofins_assay_264500); set-up: ligand concentration 3 nM; settings: Compound concentration 10.0 uM
[3] = target: Platelet-activating factor receptor (Homo sapiens) (UniProt P25105); experiment: Inhibition of Platelet Activating Factor (PAF) at 10 µM in the Eurofins-Panlabs radioligand binding assay (Eurofins_assay_265010); settings: Compound concentration 10.0 uM
MAO-A = MAO-A (Homo sapiens, UniProt P21397); experiment: Inhibition of Monoamine Oxidase MAO-A at compound concentration of 10.0 uM in the Eurofins-Panlabs enzyme assay (Eurofins_assay_140010); set-up: substrate with concentration 50 uM Kynuramine, incubation time 60 min, incubation temperature 37 C; settings: recombinant human MAO-A expressed in insect Hi5 cells, probe Kynuramine, 50 uM, compound concentration 10 uM
[4] = target: Cholecystokinin receptor type A (Homo sapiens) (UniProt P32238); experiment: Inhibition of Cholecystokinin CCK1 (CCKA) at 10 µM in the Eurofins-Panlabs radioligand binding assay (Eurofins_assay_218020); settings: Compound concentration 10.0 uM
Rattus norvegicus [5] = organism: Rattus norvegicus; experiment: Inhibition of Glycine, Strychnine-Sensitive at 10 µM in the Eurofins-Panlabs radioligand binding assay (Eurofins_assay_239000); settings: Compound concentration 10.0 uM
Homo sapiens [6] = organism: Homo sapiens; experiment: Somatostatin sst2 Eurofins-Panlabs radioligand binding assay; set-up: ligand concentration 0.03 nM; settings: Compound concentration 10.0 uM
[7] = target: Vasopressin V1b receptor (Homo sapiens) (UniProt P47901); experiment: Inhibition of Vasopressin V1B at 10 µM in the Eurofins-Panlabs radioligand binding assay (Eurofins_assay_287560); set-up: ligand concentration 1 nM; settings: Compound concentration 10.0 uM
Homo sapiens [8] = organism: Homo sapiens; experiment: Protein Serine/Threonine Kinase, MAPK14 (p38α) Eurofins-Panlabs enzyme assay; set-up: substrate with concentration 10 µg/mL Myelin Basic Protein (MBP), incubation time 60 min, incubation temperature 25 °C; settings: Compound concentration 10.0 uM
Rattus norvegicus [9] = organism: Rattus norvegicus; experiment: Adrenergic α1, Non-selective Eurofins-Panlabs radioligand binding assay; type: protein assay; settings: Compound concentration 10.0 uM
Homo sapiens [10] = organism: Homo sapiens; experiment: Estrogen ERbeta Eurofins-Panlabs radioligand binding assay; settings: Compound concentration 10.0 uM
Rattus norvegicus [11] = organism: Rattus norvegicus; experiment: Potassium Channel [SKCA] Eurofins-Panlabs radioligand binding assay; set-up: ligand concentration 0.005 nM; settings: Compound concentration 10.0 uM
Homo sapiens [12] = organism: Homo sapiens; experiment: Prostanoid, Thromboxane A2 (TP) Eurofins-Panlabs radioligand binding assay; set-up: ligand concentration 5 nM, non-specific ligand with concentration 1 µM SQ-29548, incubation time 30 min, incubation temperature 25 °C; settings: Compound concentration 10.0 uM
[13] = target: Cannabinoid receptor 1 (Homo sapiens) (UniProt P21554); experiment: Inhibition of Cannabinoid CB1 at compound concentration of 10.0 uM in the Eurofins-Panlabs radioligand binding assay (Eurofins_assay_217050); set-up: ligand concentration 2 nM; settings: Compound concentration 10.0 uM
[14] = target: Carbonic anhydrase (Homo sapiens) (UniProt P00918+P43166+P00915+P07451+P23280+O43570+Q9ULX7+Q16790+P22748+Q8N1Q1+Q9Y2D0+P35218); experiment: Carbonic Anhydrase Eurofins-Panlabs enzyme assay; type: protein assay; settings: Compound concentration 10.0 uM
[15] = target: 3-hydroxy-3-methylglutaryl-coenzyme A reductase (Homo sapiens) (UniProt P04035); experiment: HMG-CoA Reductase Eurofins-Panlabs enzyme assay; settings: Rattus norvegicus; Compound concentration 10.0 uM
[16] = target: Matrilysin (Homo sapiens) (UniProt P09237); experiment: Peptidase, Matrix Metalloproteinase-7 (MMP-7) Eurofins-Panlabs enzyme assay; set-up: substrate with concentration; settings: Compound concentration 10.0 uM
[17] = target: Collagenase 3 (Homo sapiens) (UniProt P45452); experiment: Peptidase, Matrix Metalloproteinase-13 (MMP-13) Eurofins-Panlabs enzyme assay; set-up: substrate with concentration; settings: Compound concentration 10.0 uM
[18] = target: Phospholipase A2 (Sus scrofa) (UniProt A0A8D1VEY7); experiment: Phospholipase PLA2-I Eurofins-Panlabs enzyme assay; set-up: substrate with concentration; settings: Compound concentration 10.0 uM
[19] = target: 5-hydroxytryptamine receptor 1A (Homo sapiens) (UniProt P08908); settings: Compound concentration 10.0 uM
[20] = target: T1, 5-hydroxytryptamine receptor 3A (Homo sapiens) (UniProt P46098); settings: Compound concentration 10.0 uM
T1 sequence (whole entry): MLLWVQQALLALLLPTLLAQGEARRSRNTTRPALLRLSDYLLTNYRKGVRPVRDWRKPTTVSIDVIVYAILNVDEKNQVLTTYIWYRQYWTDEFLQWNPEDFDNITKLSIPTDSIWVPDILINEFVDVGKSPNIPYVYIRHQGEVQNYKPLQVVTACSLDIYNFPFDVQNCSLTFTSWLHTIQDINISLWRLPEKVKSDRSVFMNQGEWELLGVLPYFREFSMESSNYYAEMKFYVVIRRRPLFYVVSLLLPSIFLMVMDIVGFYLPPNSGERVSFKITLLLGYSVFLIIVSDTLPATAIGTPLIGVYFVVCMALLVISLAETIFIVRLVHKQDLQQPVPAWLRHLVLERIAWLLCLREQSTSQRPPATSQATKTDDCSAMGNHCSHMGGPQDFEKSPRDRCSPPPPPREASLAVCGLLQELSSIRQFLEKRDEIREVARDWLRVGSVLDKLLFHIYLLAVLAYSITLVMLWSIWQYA

[21] = target: D(2) dopamine receptor (Homo sapiens) (UniProt P14416); settings: Compound concentration 10.0 uM
D(3) dopamine receptor [22] = target: T2, D(3) dopamine receptor (Homo sapiens, UniProt P35462); settings: Compound concentration 10.0 uM
[23] = target: D(1B) dopamine receptor (Homo sapiens) (UniProt P21918); settings: Compound concentration 10.0 uM
[24] = target: Mu-type opioid receptor (Homo sapiens) (UniProt P35372); settings: Compound concentration 10.0 uM
[25] = target: Kappa-type opioid receptor (Homo sapiens) (UniProt P41145); settings: Compound concentration 10.0 uM
[26] = target: Histamine H4 receptor (Homo sapiens) (UniProt Q9H3N8); settings: Compound concentration 10.0 uM
[27] = target: Beta-1 adrenergic receptor (Homo sapiens) (UniProt P08588); settings: Compound concentration 10.0 uM
[28] = target: Beta-3 adrenergic receptor (Homo sapiens) (UniProt P13945); settings: Compound concentration 10.0 uM
[29] = target: Alpha-1D adrenergic receptor (Homo sapiens) (UniProt P25100); settings: Compound concentration 10.0 uM
[30] = target: Sigma intracellular receptor 2 (Homo sapiens) (UniProt Q5BJF2); settings: Compound concentration 10.0 uM
[31] = target: Adenosine receptor A3 (Homo sapiens) (UniProt P0DMS8); settings: Compound concentration 10.0 uM
D(3) dopamine receptor [32] = target: T2, D(3) dopamine receptor; settings: Compound concentration 10.0 uM; remark: listed apart in the source
[33] = target: Endothelin-1 receptor (Homo sapiens) (UniProt P25101); settings: Compound concentration 10.0 uM
[34] = target: Glutamate NMDA receptor (Rattus norvegicus) (UniProt P35439+Q00959+Q00960+Q00961+Q62645+Q8VHN2+Q9R1M7); settings: Compound concentration 10.0 uM
[35] = target: D(2) dopamine receptor (Homo sapiens) (UniProt P14416); settings: Compound concentration 10.0 uM; remark: listed apart in the source

D(2) dopamine receptor (Homo sapiens), sequence (P14416 whole entry): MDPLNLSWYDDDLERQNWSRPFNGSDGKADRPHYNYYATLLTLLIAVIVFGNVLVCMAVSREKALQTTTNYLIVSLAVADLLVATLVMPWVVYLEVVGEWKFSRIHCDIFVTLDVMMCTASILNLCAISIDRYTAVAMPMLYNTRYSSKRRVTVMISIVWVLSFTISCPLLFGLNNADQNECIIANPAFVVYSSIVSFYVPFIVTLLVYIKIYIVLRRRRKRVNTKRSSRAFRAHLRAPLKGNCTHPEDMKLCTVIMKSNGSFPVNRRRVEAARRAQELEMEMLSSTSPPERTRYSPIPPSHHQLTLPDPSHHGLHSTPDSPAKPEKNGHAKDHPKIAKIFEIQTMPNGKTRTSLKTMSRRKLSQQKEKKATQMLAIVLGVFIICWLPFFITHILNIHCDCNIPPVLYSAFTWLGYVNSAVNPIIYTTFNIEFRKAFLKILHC
T2 sequence (P35462 whole entry): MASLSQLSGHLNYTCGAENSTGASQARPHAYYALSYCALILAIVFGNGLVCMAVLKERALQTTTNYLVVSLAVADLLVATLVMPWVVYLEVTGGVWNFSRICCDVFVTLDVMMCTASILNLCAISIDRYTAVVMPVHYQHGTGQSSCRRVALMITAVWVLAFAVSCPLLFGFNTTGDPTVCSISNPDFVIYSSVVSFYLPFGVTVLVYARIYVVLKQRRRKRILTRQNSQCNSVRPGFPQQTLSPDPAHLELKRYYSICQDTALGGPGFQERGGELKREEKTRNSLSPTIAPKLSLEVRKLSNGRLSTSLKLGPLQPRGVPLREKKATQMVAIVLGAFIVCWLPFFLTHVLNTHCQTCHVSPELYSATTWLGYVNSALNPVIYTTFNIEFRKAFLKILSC
Vasopressin V1b receptor (Homo sapiens), sequence (P47901 whole entry): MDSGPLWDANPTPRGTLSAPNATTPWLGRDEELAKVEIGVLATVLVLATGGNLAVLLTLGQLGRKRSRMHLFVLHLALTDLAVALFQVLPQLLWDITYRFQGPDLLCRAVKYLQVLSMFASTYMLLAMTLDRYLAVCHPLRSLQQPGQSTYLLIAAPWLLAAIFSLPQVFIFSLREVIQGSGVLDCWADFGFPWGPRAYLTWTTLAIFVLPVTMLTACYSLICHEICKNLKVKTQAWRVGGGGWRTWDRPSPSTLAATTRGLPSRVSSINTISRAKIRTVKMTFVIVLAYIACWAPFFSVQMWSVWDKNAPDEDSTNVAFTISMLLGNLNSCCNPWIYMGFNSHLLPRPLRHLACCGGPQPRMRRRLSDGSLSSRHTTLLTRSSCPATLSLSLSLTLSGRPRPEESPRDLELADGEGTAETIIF
Mu-type opioid receptor (Homo sapiens), sequence (P35372 whole entry): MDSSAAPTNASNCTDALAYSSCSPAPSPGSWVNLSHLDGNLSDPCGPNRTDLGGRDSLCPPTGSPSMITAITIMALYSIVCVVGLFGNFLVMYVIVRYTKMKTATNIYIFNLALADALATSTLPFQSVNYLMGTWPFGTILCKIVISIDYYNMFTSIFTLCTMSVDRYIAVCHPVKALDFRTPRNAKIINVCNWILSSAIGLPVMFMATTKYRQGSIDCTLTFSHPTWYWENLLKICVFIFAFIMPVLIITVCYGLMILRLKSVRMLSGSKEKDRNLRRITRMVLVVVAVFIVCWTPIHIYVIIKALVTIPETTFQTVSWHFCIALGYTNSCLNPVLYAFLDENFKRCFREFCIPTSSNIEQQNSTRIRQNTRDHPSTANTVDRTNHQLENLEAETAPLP
Platelet-activating factor receptor (Homo sapiens), sequence (P25105 whole entry): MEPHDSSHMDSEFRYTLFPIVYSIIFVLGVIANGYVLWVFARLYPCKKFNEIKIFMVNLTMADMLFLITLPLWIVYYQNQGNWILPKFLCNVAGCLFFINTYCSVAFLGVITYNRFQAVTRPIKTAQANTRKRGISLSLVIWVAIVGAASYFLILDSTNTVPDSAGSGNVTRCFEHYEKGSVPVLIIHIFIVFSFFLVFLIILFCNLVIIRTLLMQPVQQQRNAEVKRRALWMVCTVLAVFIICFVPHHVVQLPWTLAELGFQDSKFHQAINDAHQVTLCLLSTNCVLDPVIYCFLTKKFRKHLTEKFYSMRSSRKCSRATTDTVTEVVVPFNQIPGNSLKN
Beta-3 adrenergic receptor (Homo sapiens), sequence (P13945 whole entry, looked up): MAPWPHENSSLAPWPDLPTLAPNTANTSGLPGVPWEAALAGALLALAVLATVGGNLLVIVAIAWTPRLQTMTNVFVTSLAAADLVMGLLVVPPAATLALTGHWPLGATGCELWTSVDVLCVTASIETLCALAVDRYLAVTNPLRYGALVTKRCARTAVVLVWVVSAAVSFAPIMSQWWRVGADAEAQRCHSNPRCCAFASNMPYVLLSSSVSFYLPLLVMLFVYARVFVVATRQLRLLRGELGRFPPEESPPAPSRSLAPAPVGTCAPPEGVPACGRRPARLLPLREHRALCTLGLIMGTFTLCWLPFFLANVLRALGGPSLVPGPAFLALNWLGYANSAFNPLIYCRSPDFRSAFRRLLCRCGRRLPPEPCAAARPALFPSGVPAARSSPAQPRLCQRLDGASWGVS
Adenosine receptor A3 (Homo sapiens), sequence (P0DMS8 whole entry): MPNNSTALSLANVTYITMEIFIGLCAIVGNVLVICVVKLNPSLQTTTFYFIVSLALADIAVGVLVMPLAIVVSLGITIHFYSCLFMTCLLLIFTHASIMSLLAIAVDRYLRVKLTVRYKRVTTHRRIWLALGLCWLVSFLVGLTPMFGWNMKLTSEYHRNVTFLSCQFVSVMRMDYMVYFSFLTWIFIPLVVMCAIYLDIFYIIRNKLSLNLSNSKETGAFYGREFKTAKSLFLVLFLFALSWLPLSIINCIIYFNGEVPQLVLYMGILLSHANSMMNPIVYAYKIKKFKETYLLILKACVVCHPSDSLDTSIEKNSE
Histamine H4 receptor (Homo sapiens), sequence (Q9H3N8 whole entry): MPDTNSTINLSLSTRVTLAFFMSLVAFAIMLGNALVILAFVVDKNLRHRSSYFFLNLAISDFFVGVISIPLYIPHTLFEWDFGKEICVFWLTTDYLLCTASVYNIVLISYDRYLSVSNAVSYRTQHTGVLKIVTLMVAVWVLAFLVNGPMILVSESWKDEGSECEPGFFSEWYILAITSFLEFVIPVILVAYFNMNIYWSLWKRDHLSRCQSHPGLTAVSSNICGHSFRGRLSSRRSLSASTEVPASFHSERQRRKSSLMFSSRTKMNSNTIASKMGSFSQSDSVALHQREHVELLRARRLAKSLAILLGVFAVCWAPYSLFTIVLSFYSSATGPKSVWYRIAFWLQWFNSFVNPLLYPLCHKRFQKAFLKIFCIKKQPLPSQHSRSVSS
Endothelin-1 receptor (Homo sapiens), sequence (P25101 whole entry): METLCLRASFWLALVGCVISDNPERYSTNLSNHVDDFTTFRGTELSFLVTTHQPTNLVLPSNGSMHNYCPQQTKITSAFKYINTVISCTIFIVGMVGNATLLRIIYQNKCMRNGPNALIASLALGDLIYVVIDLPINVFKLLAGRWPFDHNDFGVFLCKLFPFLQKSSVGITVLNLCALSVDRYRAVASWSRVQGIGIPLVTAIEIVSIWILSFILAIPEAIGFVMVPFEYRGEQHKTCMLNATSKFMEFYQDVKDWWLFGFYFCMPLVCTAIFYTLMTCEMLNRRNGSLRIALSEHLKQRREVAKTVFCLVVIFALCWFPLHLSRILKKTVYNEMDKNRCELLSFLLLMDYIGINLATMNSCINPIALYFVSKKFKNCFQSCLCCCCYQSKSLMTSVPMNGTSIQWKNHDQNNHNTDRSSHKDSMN
Cholecystokinin receptor type A (Homo sapiens), sequence (P32238 whole entry): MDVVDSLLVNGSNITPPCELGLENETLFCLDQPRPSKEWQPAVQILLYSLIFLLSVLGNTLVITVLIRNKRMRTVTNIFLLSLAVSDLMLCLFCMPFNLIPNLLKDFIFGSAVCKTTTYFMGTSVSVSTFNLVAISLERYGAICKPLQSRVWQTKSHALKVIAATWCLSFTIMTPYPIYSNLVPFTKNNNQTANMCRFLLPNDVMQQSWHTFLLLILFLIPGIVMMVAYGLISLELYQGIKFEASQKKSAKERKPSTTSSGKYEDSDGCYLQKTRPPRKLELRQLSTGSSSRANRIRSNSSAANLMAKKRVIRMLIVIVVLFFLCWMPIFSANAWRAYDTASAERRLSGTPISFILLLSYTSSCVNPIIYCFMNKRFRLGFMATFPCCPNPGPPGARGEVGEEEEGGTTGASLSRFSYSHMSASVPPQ
D(1B) dopamine receptor (Homo sapiens), sequence (P21918 whole entry): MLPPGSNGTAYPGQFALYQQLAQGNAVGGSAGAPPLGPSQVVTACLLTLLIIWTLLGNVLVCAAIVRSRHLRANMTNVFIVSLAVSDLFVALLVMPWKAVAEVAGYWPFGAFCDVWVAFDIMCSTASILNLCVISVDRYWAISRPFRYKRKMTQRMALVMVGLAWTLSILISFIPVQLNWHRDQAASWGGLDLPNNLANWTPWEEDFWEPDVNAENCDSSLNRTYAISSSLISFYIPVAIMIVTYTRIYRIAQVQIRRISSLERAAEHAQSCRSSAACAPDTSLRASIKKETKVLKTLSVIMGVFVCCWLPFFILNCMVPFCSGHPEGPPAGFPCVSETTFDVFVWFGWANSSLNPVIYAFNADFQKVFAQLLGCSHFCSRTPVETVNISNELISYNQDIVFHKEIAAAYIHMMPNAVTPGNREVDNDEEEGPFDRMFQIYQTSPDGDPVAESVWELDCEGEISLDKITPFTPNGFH
Kappa-type opioid receptor (Homo sapiens), sequence (P41145 whole entry): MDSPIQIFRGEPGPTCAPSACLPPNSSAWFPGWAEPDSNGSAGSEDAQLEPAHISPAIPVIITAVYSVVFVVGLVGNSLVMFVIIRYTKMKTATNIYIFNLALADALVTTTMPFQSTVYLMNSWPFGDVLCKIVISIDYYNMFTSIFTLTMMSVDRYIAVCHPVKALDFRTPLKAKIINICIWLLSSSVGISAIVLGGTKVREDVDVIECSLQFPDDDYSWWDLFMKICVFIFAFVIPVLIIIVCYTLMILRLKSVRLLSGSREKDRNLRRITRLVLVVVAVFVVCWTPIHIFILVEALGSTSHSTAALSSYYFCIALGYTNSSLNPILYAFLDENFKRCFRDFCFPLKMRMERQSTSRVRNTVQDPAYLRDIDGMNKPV

SMILES	inhibition [1] [%]	inhibition (Rattus norvegicus [2]) [%]	inhibition (Mus musculus) [%]	inhibition [3] [%]	inhibition [4] [%]	inhibition (Rattus norvegicus [5]) [%]	inhibition (Homo sapiens [6]) [%]	inhibition [7] [%]	inhibition (Rattus norvegicus [9]) [%]	inhibition (Homo sapiens [10]) [%]	inhibition (Rattus norvegicus [11]) [%]	inhibition (Homo sapiens [12]) [%]	inhibition [19] [%]	inhibition [20] [%]	inhibition [21] [%]	inhibition (D(3) dopamine receptor [22]) [%]	inhibition [23] [%]	inhibition [24] [%]	inhibition [25] [%]	inhibition [26] [%]	further results
Cc1cc(OC2CCS(=O)(=O)CC2)cc(C)c1-c1cccc(COc2ccc(CCC(=O)O)c(F)c2)c1	-4	-7	-9	4	4	7	5	-4	-2	20	-5	60	1.37	6.06	16.6	59.6	32.2	1.32	10.2	10.8	inhibition at 60 min, 10 µM (MAO-A): 7% (not active); inhibition (Homo sapiens [8]): 60%; inhibition [13]: 8%; inhibition [14]: 27%; inhibition [15]: -5%; inhibition [16]: 1%; inhibition [17]: 5%; inhibition [18]: 6%; inhibition [27]: 14.4%; inhibition [28]: -5.43%; inhibition [29]: 50.8%; inhibition [30]: 19.6%; inhibition [31]: 5%; inhibition (D(3) dopamine receptor [32]): -7%; inhibition [33]: -2%; inhibition [34]: 8%; inhibition [35]: -2%
Cc1cc(OC2CCS(=O)(=O)CC2)cc(C)c1-c1cccc(COc2ccc(C(=O)O)c(F)c2)c1	-9	3	-3	2	-9	5	-6	-4	-1	8	1	28	-6.09	-5.96	8.6	7.34	17.5	-7.84	4.04	17.4	inhibition [27]: -0.49%; inhibition [28]: 6.71%; inhibition [30]: 1.49%; inhibition [31]: 0%; inhibition (D(3) dopamine receptor [32]): 4%; inhibition [33]: -2%; inhibition [34]: 7%; inhibition [35]: -4%

Reference: ChEMBL document CHEMBL5058642, “Data for DCP probe TP-051” (2022)
